Results reported in US8314079B2, “Hyaluronic acid oligosaccharide fractions and drugs containing the same” (Seikagaku Corporation, priority 2000, dated 2012).

System: SD male rats
Assay: Carbon tetrachloride hepatopathy model
Assay type: in vivo, rat
Protocol: A test substance was dissolved in physiological saline to obtain a test solution for administration. The concentration was determined depending on the dose mentioned below so that the volume of the solution to be administered should become 5 mL/kg.
Moreover, as a positive control solution, FAD (flavine adenine dinucleotide, Wakamoto Pharmaceutical), of which effect on the carbon tetrachloride hepatopathy model had been reported (Yakubutsu Ryouhou (Pharmacotherapy), vol. 9, Special edition, pp. 46-53), was used at a dose of 10 mg/kg. Further, physiological saline was used as a negative control solution.
SD male rats of 5-week old were divided into a “negative control solution” administered group (n=8), “HA4 2 mg/kg” administered group (n=8), “HA4 10 mg/kg” administered group (n=8), “HA4 50 mg/kg” administered group (n=8), “positive control solution” administered group (n=8) and “normal” group (n=8).
The rats of the groups were starved from 16:00 of the day before the first administration day, orally administered with 100 mg/kg of carbon tetrachloride (CCl4) before 8:00 of the next day and then intraperitoneally administered with each of the aforementioned solutions at 8:00. Thereafter, the rats were bred with maintaining starvation, and administered with each of the aforementioned solutions in the same manner as the first administration at 16:00 and 24:00. The rats were fed after the administration at 24:00 and dissected at 8:00 on the next day.
After the dissection, blood was collected, and GOT activity and leucocyte count were measured. The GOT activity was measured by using a clinical chemistry autoanalyzer (COBAS MIRA S, Nippon Roche), and the leucocyte count was measured by using an automated hematology analyzer (Sysmex K-2000, produced by Sysmex).
IL-10 in peripheral blood was measured by using IL-10 Rat ELISA (produced by ENDOGEN). IL-8 was measured by using Panatest A Series Rat CINC-1 (IL-8) (Panapharm Laboratories). The symbol of ** in FIGS. 51 and 52 indicates presence of significant difference with p<0.01 (Williams multiple range test).

[1] = HA4 2, 10, 50 mg/kg intraperitoneal, dose dependence

## CC(=O)N[C@H]1[C@H](O[C@H]2[C@H](O)[C@@H](O)[C@H](O[C@H]3[C@H](O)[C@@H](CO)OC(O)[C@@H]3NC(C)=O)O[C@@H]2C(=O)O)O[C@H](CO)[C@@H](O)[C@@H]1O[C@@H]1O[C@H](C(=O)O)[C@@H](O)[C@H](O)[C@H]1O.[Na].[Na] (stereo partly drawn) [HA4, sodium β-D-glucopyranosyluronate-(1→3)-2-acetamido-2-deoxy-β-D-glucopyranosyl-(1→4)-(sodium β-D-glucopyranosyluronate)-(1→3)-2-acetamido-2-deoxy-D-glucopyranose]
HA4 50 mg/kg administered group, intraperitoneal, compared with negative control solution group, p<0.05
  GOT activity: significant reduction
HA4 50 mg/kg, compared with negative control solution group, p<0.01
  blood IL-10 level: significantly higher
[1]
  blood IL-8 level: decreased in a manner dependent on the dose of HA4
  blood IL-10 level: increased in a manner dependent on the dose of HA4
HA4 groups compared with FAD 10 mg/kg (positive control)
  peripheral leucocyte count: decreased compared even with FAD
All HA4 groups (2, 10, 50 mg/kg intraperitoneal), compared with negative control solution group
  peripheral leucocyte count: significant decrease
